Biological target: T1, CCR1 (Homo sapiens, UniProt P32246)
T1 construct: host or cells: THP-1 cells or freshly isolated monocytes
T1 sequence (P32246 1-355): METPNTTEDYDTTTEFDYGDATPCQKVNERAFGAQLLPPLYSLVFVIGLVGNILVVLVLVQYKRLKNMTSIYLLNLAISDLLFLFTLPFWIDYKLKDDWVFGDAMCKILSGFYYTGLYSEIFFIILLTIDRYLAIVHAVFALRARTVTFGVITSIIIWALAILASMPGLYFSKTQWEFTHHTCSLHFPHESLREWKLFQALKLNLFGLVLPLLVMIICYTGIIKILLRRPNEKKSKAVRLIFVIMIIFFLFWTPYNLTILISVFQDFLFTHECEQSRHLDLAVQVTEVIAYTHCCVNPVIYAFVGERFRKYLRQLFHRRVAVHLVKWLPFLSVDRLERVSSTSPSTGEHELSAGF
Assay: chemotaxis assay (THP-1 cells or monocytes migrating to CCR1 chemokine ligands)
Format: cell-based
Conditions: for activity in direct comparisons relative to the related compounds tested: versus imidazole-substituted pyrido[4,3-b]pyrazoles of related U.S. application Ser. No. 12/124,894
Experimental: THP-1 cells were obtained from ATCC (TIB-202) and cultured as a suspension in RPMI-1640 medium supplemented with 2 mM L-glutamine, 1.5 g/L sodium bicarbonate, 4.5 g/L glucose, 10 mM HEPES, 1 mM sodium pyruvate, 0.05% 2-mercaptoethanol and 10% FBS. Cells were grown under 5% CO2/95% air, 100% humidity at 37° C. and subcultured twice weekly at 1:5 (cells were cultured at a density range of 2×10^5 to 2×10^6 cells/mL) and harvested at 1×10^6 cells/mL. THP-1 cells express CCR1 and can be used in CCR1 binding and functional assays.
One of the primary functions of chemokines is their ability to mediate the migration of chemokine receptor-expressing cells, such as white blood cells. To confirm that a compound of interest inhibited not only CCR1 specific binding and signaling (at least as determined by calcium mobilization assays), but also CCR1 mediated migration, a chemotaxis assay was employed. THP-1 myelomonocytic leukemia cells, which resemble monocytes, as wells as freshly isolated monocytes, were used as targets for chemoattraction by CCR1 chemokine ligands (i.e., MIP-1α, CCL15/leukotactin). Cells were place in the top compartment of a microwell migration chamber, 5 μm pore polycarbonate, polyvinylpyrrolidone-coated filters in 96-well chemotaxis chambers (Neuroprobe; Gaithersburg, Md.) using chemotaxis buffer (Hank's balanced salt solution (HBSS) and 1% FBS. CCR1 chemokine ligands (i.e., MIP-1α, CCL15/Leukotactin; R&D Systems; Minneapolis, Minn.) are used to evaluate compound mediated inhibition of CCR1 mediated migration. Other chemokines (i.e., SDF-1α; R&D Systems; Minneapolis, Minn.) are used as specificity controls. The lower chamber was loaded with 29 μl of chemokine (i.e., 0.1 nM CCL15/Leukotactin) and varying amounts of compound; the top chamber contained 100,000 THP-1 or monocyte cells in 20 μl. […] To ascertain a compound of interest's affinity for CCR1 as well as to confirm its ability to inhibit CCR1 mediated cell migration, inhibitory activity was titered over a 1×10^−10 to 1×10^−4 M range of compound concentrations in this chemotaxis assay. In this assay, the amount of compound was varied; while cell number and chemokine agonist concentrations were held constant. After the chemotaxis chambers were incubated 1-2 hours at 37° C., the responding cells in the lower chamber were quantified by labeling with the CyQuant assay (Molecular Probes), a fluorescent dye method that measures nucleic acid content, and by measuring with a Spectrafluor Plus (Tecan). The computer program Prism from GraphPad, Inc. (San Diego, Calif.) was used to calculate IC50 values. IC50 values are those compound concentrations required to inhibit the number of cells responding to a CCR1 agonist by 50%.

Structure (SMILES)	activity in direct comparisons relative to the related compounds tested	IC50 relative to comparator compound (chemotaxis assay, compared with drawing 40)
COc1cc(N2CCN(C(=O)Cn3nc(-c4ncc[nH]4)c4c(N)ncnc43)CC2)ccc1Cl [Compound 1.001]	at least an order of magnitude better	–
C[C@H]1CN(c2ccc(Cl)cc2F)CCN1C(=O)Cn1nc(-c2ncc[nH]2)c2c(N)ncnc21 [Compound 1.003]	at least an order of magnitude better	–
COc1cc(N2CCN(C(=O)Cn3nc(-c4ncc[nH]4)c4c(N)ncnc43)[C@@H](C)C2)ccc1Cl [Compound 1.004]	at least an order of magnitude better	–
COc1cc(N2CCN(C(=O)Cn3nc(-c4ncc[nH]4)c4c(N)ncnc43)[C@@H](C)C2)c(F)cc1Cl [Compound 1.006]	at least an order of magnitude better	–
CCOc1cc(N2CCN(C(=O)Cn3nc(-c4ncc[nH]4)c4c(N)ncnc43)CC2)ccc1Cl [Compound 1.007]	at least an order of magnitude better	–
Nc1ncnc2c1c(-c1ncc[nH]1)nn2CC(=O)N1CCN(c2ccc(Cl)c(OC(F)(F)F)c2)CC1 [Compound 1.010]	at least an order of magnitude better	–
CCOc1cc(N2CCN(C(=O)Cn3nc(-c4ncc[nH]4)c4c(N)ncnc43)[C@@H](C)C2)ccc1Cl [Compound 1.011]	at least an order of magnitude better	–
COc1cc(N2CCN(C(=O)Cn3nc(-c4ncc[nH]4)c4c(N)ncnc43)[C@@H](C)C2)c(F)cc1Cl [drawing 39]	–	an order of magnitude lower

Reference: patent publication US8946240B2, “4-amino-3-(imidazolyl)-pyrazolo[3,4-D]pyrimidines” (ChemoCentryx, Inc., priority 2008, dated 2015)
